What was measured:
[1] = Antioxidant activity at pH 7.4 by hydroxyl radical scavenging assay; format: functional
[2] = system: DNA; assay: Binding affinity to calf thymus DNA by fluorescence spectroscopy; format: nucleic-acid assay; details: Bos taurus
[3] = system: DNA; assay: Binding affinity to calf thymus DNA by electronic absorption spectroscopy; format: nucleic-acid assay; details: Bos taurus

Row | IC50 [1] | Kq [2] | Kb [3] | SMILES
1 | 9.6 mM | – | – | OC[C@@H](O)[C@@H](O)[C@H](O)[C@H](O)CO [MANNITOL]
2 | – | 0.93 ×10⁴ /M | 1.6 ×10⁴ /M | O=C(N/N=C1\CC(c2ccc(O)cc2)Oc2cc(O)cc(O)c21)c1ccccc1O (stereo not drawn)

— ChEMBL document CHEMBL1158170, “Synthesis, characterization, antioxidant activity and DNA-binding studies of two rare earth(III) complexes with naringenin-2-hydroxy benzoyl hydrazone ligand” (Eur J Med Chem, 2008)
